# Source: patent publication US20260272943A1, “Acyl Ethyl Ester Polycyclic Compound, and Pharmaceutical Composition and Use Thereof” (priority 2023, published 2026)
# Tests used:
# [1] = tested on: H1N1 influenza A virus strain A/FM/1/47; assay: Anti-influenza virus activity in vitro (inhibition of virus replication in MDCK cells); assay type: cell-based; conditions: 72 h, read-out: EC50 for in vitro inhibition of replication of H1N1 (FM1) influenza virus
# [2] = PK study in rats, single oral gavage; assay type: in vivo; conditions: SD rats, single oral gavage 3.0 mg/kg
# Method: SD rats were administered in a single oral gavage administration with different groups of drugs, including compound I-1-1-2, compound I-1-1-3, compound I-1-1-6, compound I-20, compound II-5, and Baloxavir Marboxil. After administration, plasma at different time points were collected to detect the drug content, and the pharmacokinetic parameters of different groups of drugs in SD rats were calculated and compared.
# 48 SD rats, weighing 180 g-220 g, with half male and half female, were randomly assigned to 6 groups according to their body weight, with 8 rats in each group. Animal grouping information was as follows:
# (§1) After SD rats were randomly assigned to groups, they were fasted for more than 12 hours before administration and were allowed to drink water freely. Drinking water was prohibited from 1 hour before administration to 1 hour after administration. Food was provided 4 hours after administration. Each group was administered with a single oral gavage dose of 3.0 mg/kg. Approximately 0.2 mL of jugular vein blood was collected at 0 h before administration and 5 min, 10 min, 15 min, 30 min, 1 h, 2 h, 4 h, 6 h, 10 h, 24 h and 30 h after administration, and placed in EDTA-K2 anticoagulation tubes.
# (§2) After the whole blood was collected, the plasma was separated by centrifugation at 4000 rpm for 10 min at 4° C., and then stored in a refrigerator at −80° C. for testing. The plasma drug concentration of samples in each group was determined by LC-MS/MS.
# PK parameters were calculated using a non-compartmental model in Phoenix winnonlin 8.0. Data analysis included Cmax, Tmax, AUC0-t, AUC0-∞∞, t1/2 and other pharmacokinetic parameters.
# [3] = PK study in cynomolgus monkeys, single oral gavage; assay type: in vivo; conditions: single oral gavage 5.0 mg/kg
# Method: Cynomolgus monkeys were administered with a single oral gavage with different groups of drugs, including compound I-1-1-2, compound I-1-1-3 and Baloxavir Marboxil. After administration, plasma at different time points were collected to detect the drug content, and the pharmacokinetic parameters of different groups of drugs in cynomolgus monkeys were calculated and compared.
# 24 cynomolgus monkeys, aged 3-5 years old and weighing 3 kg-7 kg, with half male and half female, were used and randomly assigned to 3 groups according to their body weight, with 8 monkeys in each group. Animal grouping information was as follows:
# as §1, with “After cynomolgus monkeys” for “After SD rats”, “of 5.0” for “of 3.0”, “Approximately 1.0” for “Approximately 0.2”, “h, 8 h, 12” for “h, 10”, “24 h, and 48” for “24”, “h (D2)” for “h and 30 h”
# as §2
# PK parameters were calculated using non-compartmental model in a Phoenix winnonlin 8.0. Data analysis included Cmax, Tmax, AUC0-t, AUC0-∞∞, t1/2 and other pharmacokinetic parameters.
SMILES,EC50 [1] [µg/mL],Bioavailability (Cmax and AUC0-t) compared with Compound I-20 and Compound II-5 groups [2],further results
"COC(=O)OCOc1c2n(ccc1=O)N([C@@H]1c3ccccc3SCc3c1ccc(F)c3F)[C@@H]1COCCN1C2=O [Baloxavir Marboxil, reference compound]",0.32,significantly improved,
CC(=O)O[C@@H](C)Oc1c2n(ccc1=O)N([C@@H]1c3ccccc3SCc3c1ccc(F)c3F)[C@@H]1COCCN1C2=O [Compound I-1-1-1],0.32,,
CC(=O)O[C@H](C)Oc1c2n(ccc1=O)N([C@@H]1c3ccccc3SCc3c1ccc(F)c3F)[C@@H]1COCCN1C2=O [Compound I-1-1-2],0.032,significantly improved,Bioavailability (Cmax and AUC0-t) compared with Baloxavir Marboxil group [2]: significantly improved; Half-life (t1/2) rank among groups [2]: longest half-life; Bioavailability (Cmax and AUC0-t) compared with Baloxavir Marboxil group [3]: significantly improved; Exposure rank among groups [3]: highest exposure; Half-life rank among groups [3]: longest half-life
CC(=O)OC(C)Oc1c2n(ccc1=O)N([C@@H]1c3ccccc3SCc3c1ccc(F)c3F)[C@@H]1COCCN1C2=O (some centres unmarked) [Compound I-1-1-3],0.32,significantly improved,Bioavailability (Cmax and AUC0-t) compared with Baloxavir Marboxil group [2]: significantly improved; Bioavailability (Cmax and AUC0-t) compared with Baloxavir Marboxil group [3]: significantly improved
CC(=O)OC(C)Oc1c2n(ccc1=O)N([C@@H]1c3ccccc3[Se]Cc3c1ccc(F)c3F)[C@@H]1COCCN1C2=O (some centres unmarked) [Compound I-1-1-6],0.32,,
"[2H]C([2H])([2H])C(=O)OC(C)Oc1c2n(ccc1=O)N([C@@H]1c3ccccc3SCc3c1ccc(F)c3F)[C@@H]1COCCN1C2=O (some centres unmarked) [Compound I-20, reference compound]",0.32,,
"CC(=O)OCOc1c2n(ccc1=O)N([C@@H]1c3ccccc3SCc3c1ccc(F)c3F)[C@@H]1COCCN1C2=O [Compound II-5, reference compound]",0.32,,
